The values below come from patent US20230085307A1, “PYRIDAZINONE COMPOUND AND HERBICIDE” (NISSAN CHEMICAL CORPORATION, priority 2019, published 2023).

Structures are written as SMILES.

For one assay, the system named is Japanese bulrush. Kind of assay: Test Example 1: herbicidal activity, application before weed generation under submerged conditions (Table 16, symbol B). The assay is classed as in vivo, Japanese bulrush (Schoenoplectus juncoides). The procedure, abridged:
(§1)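 Emulsion formulation, water-diluted to set dose, was put onto the flooded surface (4 cm depth, alluvial soil) the same day weeds were sown and 2.5-leaf rice transplanted. After 3 weeks at 25-30 °C under glass, each species was rated 0 (≤5% kill) to 5 (≥90% kill).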

The subject of a further assay is oval-leafed pondweed. Kind of assay: Test Example 1: herbicidal activity, application before weed generation under submerged conditions (Table 16, symbol C). Format: in vivo, oval-leafed pondweed (Monochoria vaginalis). The method, boiled down: as §1
Assay [1] relates to barnyard grass. Put plainly: Test Example 3: herbicidal effect by foliage application, Wagner pot (Table 18, symbol H). The assay is classed as in vivo, barnyard grass (Echinochloa crus-galli). The procedure, abridged:
(§2)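 Plants were sown in alluvial soil held under 0.1–0.5 cm standing water and grown 14 days in a greenhouse at 25–30 °C. An emulsifiable formulation, water-diluted to the set dose, was then sprayed onto the foliage, and effects were scored three weeks later using previously defined criteria.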

The subject of a further assay is Chinese sprangletop. Put plainly: Test Example 3: herbicidal effect by foliage application, Wagner pot (Table 18, symbol D). Format: in vivo, chinese sprangletop (Leptochloa chinensis). The procedure, abridged: as §2
Assay [2] concerns southern crabgrass. Put plainly: Test Example 4: herbicidal effect by soil treatment (Table 19, symbol F). Format: in vivo, southern crabgrass (Digitaria ciliaris). The procedure, abridged: (§3)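 Soil-surface application: an emulsion agent diluted with water to the predetermined dose is sprayed uniformly over seeds lying under roughly 1.5 cm of sterilized diluvial soil. Boxes stay in a greenhouse at 25° C. to 30° C. Three weeks later, each species is graded on previously defined criteria.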

Assay [3] deals with wild oat. Put plainly: Test Example 4: herbicidal effect by soil treatment (Table 19, symbol I). The assay is classed as in vivo, wild oat (Avena fatua). The method, boiled down:
as §3

The test system of assay [4] is blackgrass. Put plainly: Test Example 4: herbicidal effect by soil treatment (Table 19, symbol J). The assay is classed as in vivo, blackgrass (Alopecurus myosuroides). The procedure, abridged: as §3
Another assay deals with Italian ryegrass. Kind of assay: Test Example 4: herbicidal effect by soil treatment (Table 19, symbol K). The assay is classed as in vivo, Italian ryegrass (Lolium multiflorum). The procedure, abridged:
as §3

The subject of a further assay is redroot pigweed. Put plainly: Test Example 4: herbicidal effect by soil treatment (Table 19, symbol N). Format: in vivo, redroot pigweed (Amaranthus retroflexus). The method, boiled down: as §3
Assay [5] relates to false cleavers. Kind of assay: Test Example 4: herbicidal effect by soil treatment (Table 19, symbol Q). The assay is classed as in vivo, false cleavers (Galium spurium). The procedure, abridged: as §3
Assay [6] relates to southern crabgrass. Put plainly: Test Example 5: herbicidal effect by foliage application, plastic box (Table 20, symbol F). Format: in vivo, southern crabgrass (Digitaria ciliaris). The settings on record: foliage application, three weeks after application. The method, boiled down: (§4)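 Sow seeds spot-wise in sterilized diluvial soil; cover with ~1.5 cm soil. Grow 14 days in greenhouse, 25° C. to 30° C. Spray foliage with emulsion diluted to predetermined amount. Rate effect after 3 weeks.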

Assay [7] concerns barnyard grass. Put plainly: Test Example 5: herbicidal effect by foliage application, plastic box (Table 20, symbol H). Format: in vivo, barnyard grass (Echinochloa crus-galli). Particulars: foliage application, three weeks after application. The method, boiled down:
as §4

For assay [8], the system named is wild oat. Put plainly: Test Example 5: herbicidal effect by foliage application, plastic box (Table 20, symbol I). Format: in vivo, wild oat (Avena fatua). The settings on record: foliage application, three weeks after application. The procedure, abridged: as §4
Assay [9] deals with blackgrass. Kind of assay: Test Example 5: herbicidal effect by foliage application, plastic box (Table 20, symbol J). Format: in vivo, blackgrass (Alopecurus myosuroides). The settings on record: foliage application, three weeks after application. The procedure, abridged: as §4
A further assay has as its system windgrass. Put plainly: Test Example 5: herbicidal effect by foliage application, plastic box (Table 20, symbol L). The assay is classed as in vivo, windgrass (Apera spica-venti). Particulars: foliage application, three weeks after application. The method, boiled down:
as §4

A further assay deals with lambsquarters. Kind of assay: Test Example 5: herbicidal effect by foliage application, plastic box (Table 20, symbol O). The assay is classed as in vivo, lambsquarters (Chenopodium album). The settings on record: foliage application, three weeks after application. The method, boiled down: as §4
For assay [10], the system named is false cleavers. Put plainly: Test Example 5: herbicidal effect by foliage application, plastic box (Table 20, symbol Q). Format: in vivo, false cleavers (Galium spurium). The settings on record: foliage application, three weeks after application. The procedure, abridged:
as §4

The next assay has as its system persian speedwell. Kind of assay: Test Example 5: herbicidal effect by foliage application, plastic box (Table 20, symbol R). The settings on record: foliage application, three weeks after application. Format: in vivo, Persian speedwell (Veronica persica). The method, boiled down: as §4
The mark [11] stands for this setting: amount of applied herbicide 320 g/ha.
The mark [12] stands for this setting: amount of applied herbicide 80 g/ha.

Regarding `COc1cc(F)ccc1-c1sc2cc(C)ccc2c1-c1c(O)c(C)nn(C)c1=O` [3-055], the “Herbicidal effect, B: Japanese bulrush” value in the assay on Japanese bulrush (setting [11]) was 4 (Herbicidal rate of 70% or more and less than 90%). The “Herbicidal effect, C: oval-leafed pondweed” value (from here on “Herbicidal effect, C”) in the assay with oval-leafed pondweed (setting [11]) is 3 (Herbicidal rate of 40% or more and less than 70%). In the assay on barnyard grass [1] (320 g/ha), the “herbicidal effect on barnyard grass (H)” value is given as 5 (Herbicidal rate of 90% or more (almost completely withered)). The “herbicidal effect on Chinese sprangletop (D)” value (“herbicidal effect … (D)” for short) in the assay with Chinese sprangletop (320 g/ha) was 4 (Herbicidal rate of 70% or more and less than 90%). Further, the “F: southern crabgrass, herbicidal effect grade” value (from here on “F: southern crabgrass”) is 3 (Herbicidal rate of 40% or more and less than 70%) with southern crabgrass [2] (setting [11]); 5 (Herbicidal rate of 90% or more (almost completely withered)) with southern crabgrass [6] (320 g/ha). Moreover, the “I: wild oat, herbicidal effect grade” value in the assay with wild oat [3] (setting [11]) is 3 (Herbicidal rate of 40% or more and less than 70%); in the assay with wild oat [8] (320 g/ha), 5 (Herbicidal rate of 90% or more (almost completely withered)). For the same compound, the “J: blackgrass, herbicidal effect grade” value in the assay on blackgrass [4] (setting [11]) is 2 (Herbicidal rate of 20% or more and less than 40%); in the assay with blackgrass [9] (320 g/ha) it was 5 (Herbicidal rate of 90% or more (almost completely withered)). The “K: Italian ryegrass, herbicidal effect grade” value (“K: Italian ryegrass” below) with Italian ryegrass (setting [11]) is given as 0 (Herbicidal rate of 5% or less (almost no effect)). The “N: redroot pigweed, herbicidal effect grade” value (“N: redroot pigweed” for short) in the assay with redroot pigweed (setting [11]) is 0 (Herbicidal rate of 5% or less (almost no effect)). Besides, the “Q: false cleavers, herbicidal effect grade” value (“Q: false cleavers” for short) in the assay with false cleavers [5] (setting [11]) is 3 (Herbicidal rate of 40% or more and less than 70%); with false cleavers [10] (320 g/ha), 4 (Herbicidal rate of 70% or more and less than 90%). Also, the “H: barnyard grass, herbicidal effect grade” value (“H: barnyard grass” below) in the assay with barnyard grass [7] (320 g/ha) was 4 (Herbicidal rate of 70% or more and less than 90%). In the assay with windgrass (320 g/ha), the “L: windgrass, herbicidal effect grade” value is 5 (Herbicidal rate of 90% or more (almost completely withered)). In the assay on lambsquarters (320 g/ha), the “O: lambsquarters, herbicidal effect grade” value (shortened to “O: lambsquarters”) is given as 5 (Herbicidal rate of 90% or more (almost completely withered)). Further, the “R: persian speedwell, herbicidal effect grade” value (“R: persian speedwell” below) in the assay with persian speedwell (320 g/ha) is listed as 5 (Herbicidal rate of 90% or more (almost completely withered)).
Regarding `CCCC(=O)Oc1c(C)nn(C)c(=O)c1-c1c(-c2ccccc2OCC)sc2cc(OC)ccc12` [3-071], in the assay on Japanese bulrush (setting [11]), the “Herbicidal effect, B: Japanese bulrush” value is recorded as 5 (Herbicidal rate of 90% or more (almost completely withered)). Also, in the assay with oval-leafed pondweed (setting [11]), the “Herbicidal effect, C” value was 5 (Herbicidal rate of 90% or more (almost completely withered)). Moreover, the “herbicidal effect on barnyard grass (H)” value in the assay with barnyard grass [1] (320 g/ha) is on record as 5 (Herbicidal rate of 90% or more (almost completely withered)). Further, the “herbicidal effect … (D)” value in the assay on Chinese sprangletop (320 g/ha) is 5 (Herbicidal rate of 90% or more (almost completely withered)). The “F: southern crabgrass” value was 4 (Herbicidal rate of 70% or more and less than 90%) in the assay on southern crabgrass [2] (setting [11]); 5 (Herbicidal rate of 90% or more (almost completely withered)) with southern crabgrass [6] (320 g/ha). Also, the “I: wild oat, herbicidal effect grade” value is 3 (Herbicidal rate of 40% or more and less than 70%) in the assay with wild oat [3] (setting [11]); 5 (Herbicidal rate of 90% or more (almost completely withered)) in the assay with wild oat [8] (320 g/ha). In addition, the “J: blackgrass, herbicidal effect grade” value in the assay with blackgrass [4] (setting [11]) was 4 (Herbicidal rate of 70% or more and less than 90%); in the assay with blackgrass [9] (320 g/ha), 5 (Herbicidal rate of 90% or more (almost completely withered)). For the same compound, the “K: Italian ryegrass” value in the assay on Italian ryegrass (setting [11]) was 2 (Herbicidal rate of 20% or more and less than 40%). Besides, the “N: redroot pigweed” value in the assay with redroot pigweed (setting [11]) was 4 (Herbicidal rate of 70% or more and less than 90%). The “Q: false cleavers” value in the assay on false cleavers [5] (setting [11]) and in the assay on false cleavers [10] (320 g/ha) was 5 (Herbicidal rate of 90% or more (almost completely withered)) each time. Further, the “H: barnyard grass” value in the assay with barnyard grass [7] (320 g/ha) was 5 (Herbicidal rate of 90% or more (almost completely withered)). Further, the “L: windgrass, herbicidal effect grade” value with windgrass (320 g/ha) is reported as 5 (Herbicidal rate of 90% or more (almost completely withered)). Further, the “O: lambsquarters” value with lambsquarters (320 g/ha) is listed as 5 (Herbicidal rate of 90% or more (almost completely withered)). The “R: persian speedwell” value in the assay with persian speedwell (320 g/ha) is on record as 5 (Herbicidal rate of 90% or more (almost completely withered)).
With `CCOc1cc(F)ccc1-c1sc2cc(OC)ccc2c1-c1c(O)c(C)nn(C)c1=O` [3-078], in the assay with Japanese bulrush (setting [12]), the “Herbicidal effect, B: Japanese bulrush” value was 5 (Herbicidal rate of 90% or more (almost completely withered)). Also, in the assay on oval-leafed pondweed (setting [12]), the “Herbicidal effect, C” value is 4 (Herbicidal rate of 70% or more and less than 90%). For the same compound, the “herbicidal effect on barnyard grass (H)” value in the assay with barnyard grass [1] (80 g/ha) is 5 (Herbicidal rate of 90% or more (almost completely withered)). Besides, in the assay with Chinese sprangletop (80 g/ha), the “herbicidal effect … (D)” value was 3 (Herbicidal rate of 40% or more and less than 70%). Besides, the “F: southern crabgrass” value is 4 (Herbicidal rate of 70% or more and less than 90%) in the assay with southern crabgrass [2] (setting [12]); 5 (Herbicidal rate of 90% or more (almost completely withered)) with southern crabgrass [6] (80 g/ha). Moreover, the “I: wild oat, herbicidal effect grade” value with wild oat [3] (setting [12]) is 0 (Herbicidal rate of 5% or less (almost no effect)); in the assay on wild oat [8] (80 g/ha) it was 5 (Herbicidal rate of 90% or more (almost completely withered)). The “J: blackgrass, herbicidal effect grade” value in the assay on blackgrass [4] (setting [12]) was 5 (Herbicidal rate of 90% or more (almost completely withered)); in the assay on blackgrass [9] (80 g/ha) it was 4 (Herbicidal rate of 70% or more and less than 90%). In addition, the “K: Italian ryegrass” value in the assay with Italian ryegrass (setting [12]) was 3 (Herbicidal rate of 40% or more and less than 70%). Moreover, the “N: redroot pigweed” value in the assay on redroot pigweed (setting [12]) was 3 (Herbicidal rate of 40% or more and less than 70%). The “Q: false cleavers” value with false cleavers [5] (setting [12]) and with false cleavers [10] (80 g/ha) was 5 (Herbicidal rate of 90% or more (almost completely withered)) each time. Further, the “H: barnyard grass” value in the assay on barnyard grass [7] (80 g/ha) was 5 (Herbicidal rate of 90% or more (almost completely withered)). In addition, in the assay with windgrass (80 g/ha), the “L: windgrass, herbicidal effect grade” value was 5 (Herbicidal rate of 90% or more (almost completely withered)). The “O: lambsquarters” value in the assay on lambsquarters (80 g/ha) is 5 (Herbicidal rate of 90% or more (almost completely withered)). Further, the “R: persian speedwell” value in the assay with persian speedwell (80 g/ha) was 5 (Herbicidal rate of 90% or more (almost completely withered)).
